According to EP1073651B1, “INDOLYL DERIVATIVES AS SEROTONERGIC AGENTS” (Wyeth, priority 1998, dated 1999):
Like-named read-outs stand apart in the source and are kept apart here.

Target: T1, serotonin transporter (Rattus norvegicus, UniProt P31652)
T1 construct: from tissue; host or cells: frontal cortex membranes of male Sprague-Dawley rats
Experiment: Displacement of specifically bound 3H-paroxetine from rat cortical membranes (affinity for the serotonin transporter)
Assay type: binding
Procedure: The affinity of drugs for the serotonin transporter was determined by assessing the ability of agents to displace specifically bound 3H-paroxetine binding from rat cortical membranes. […] Briefly, frontal cortical membranes prepared from male S.D. rats were incubated with ^3H-paroxetine (0.1 nM) for 60 min at 25°C. All tubes also contained either vehicle, test compound (one to eight concentrations), or a saturating concentration of fluoxetine (10 µM) to define […]. All reactions are terminated by the addition of ice cold Tris buffer followed by rapid filtration using a Tom Tech filtration device to separate bound from free ^3H-paroxetine. […] Nonspecific binding was determined using fluoxetine.

[1] = compounds of formula 1, frontal cortical membranes from male S.D. rats, 3H-paroxetine 0.1 nM, 60 min at 25°C, Ki from IC50 by Cheng and Prusoff, read-out: Inhibition of [3H]-Paroxetine binding Ki

T1 sequence (P31652 whole entry): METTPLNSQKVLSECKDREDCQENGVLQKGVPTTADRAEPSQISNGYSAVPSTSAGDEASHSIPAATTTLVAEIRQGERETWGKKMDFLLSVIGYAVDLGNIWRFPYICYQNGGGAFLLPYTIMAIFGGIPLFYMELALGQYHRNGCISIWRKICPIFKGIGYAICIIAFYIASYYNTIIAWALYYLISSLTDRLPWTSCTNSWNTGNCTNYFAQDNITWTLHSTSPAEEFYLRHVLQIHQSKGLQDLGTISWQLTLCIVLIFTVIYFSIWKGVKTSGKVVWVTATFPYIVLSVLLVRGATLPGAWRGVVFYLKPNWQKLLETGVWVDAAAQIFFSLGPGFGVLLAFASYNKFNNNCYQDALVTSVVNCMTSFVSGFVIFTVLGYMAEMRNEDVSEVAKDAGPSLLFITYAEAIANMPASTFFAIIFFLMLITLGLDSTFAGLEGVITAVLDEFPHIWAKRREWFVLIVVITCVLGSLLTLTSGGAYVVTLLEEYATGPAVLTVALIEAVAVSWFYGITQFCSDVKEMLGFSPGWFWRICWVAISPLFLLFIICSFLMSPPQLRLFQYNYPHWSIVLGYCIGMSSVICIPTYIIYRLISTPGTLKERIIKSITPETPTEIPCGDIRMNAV

Row | SMILES | Ki [1] [nM] | Ki [nM]
1 | COc1ccccc1N1CCN(CCN2CCC(Cc3c[nH]c4ccc(F)cc34)CC2)CC1 [Example 1, 5-Fluoro-3-(1-{2-[4-(2-methoxyphenyl)piperazin-1-yl]ethyl}piperidin-4-ylmethyl)-1H-indole] | 4.8 | –
2 | COc1ccccc1N1CCN(CCN2CC=C(c3c[nH]c4ccccc34)CC2)CC1 [Example 6, 3-(1-{2-[4-(2-methoxyphenyl)piperazin-1-yl]ethyl} 1,2,3,6-tetrahydropyridin-4-yl)-1H-indole] | – | 10
3 | COc1ccccc1N1CCN(CCCN2CCC(Cc3c[nH]c4ccc(F)cc34)CC2)CC1 [Example 3, 5-Fluoro-3-(1-{3-[4-(2-methoxyphenyl)piperazin-1-yl]propyl}piperidin-4-ylmethyl)-1H-indole] | 1.2 | –
4 | COc1ccccc1N1CCN(CCN2CC=C(c3c[nH]c4ccc(F)cc34)CC2)CC1 [Example 7, 5-Fluoro-3-(1-{2-[4-(2-methoxyphenyl)piperazin-1-yl]ethyl} 1,2,3,6-tetrahydropyridin-4-yl)-1H-indole] | – | 19
